Results on one compound are retold here after PMC10882974 (Environmental Science & Technology, 2024).

The test system of data set [1] is C. elegans. Put plainly: general activity test (WMicrotracker). Format: in vivo, Caenorhabditis elegans. The procedure:
Two quadrants were spiked with 2 μL of an attractant (0.5% diacetyl), and two contained 2 μL water as a control.[30] After 45 min, during which the worms could move freely, the dish was moved to 4 °C to immobilize the worms, and the number of worms in each quadrant was counted. The general activity was measured with a WMicrotracker from Phylumtech. This system measured the collective movement in multiwell plates by detecting the number of interruptions of an infrared beam over time. The total number of interruptions over a 30 min period was calculated with the Wmicrotracker software. […] For all data points, the mean and standard deviation were plotted using Graphpad Prism 9.4. The ordinary differential equations and parameters fitted in Matlab were also entered in Graphpad Prism to simulate the internal concentrations over time.

Data set [2] concerns C. elegans. Kind of data set: chemotaxis assay (diacetyl attractant). Format: in vivo, Caenorhabditis elegans. How it is done: Two quadrants were spiked with 2 μL of an attractant (0.5% diacetyl), and two contained 2 μL water as a control.[30] After 45 min, during which the worms could move freely, the dish was moved to 4 °C to immobilize the worms, and the number of worms in each quadrant was counted. For all data points, the mean and standard deviation were plotted using Graphpad Prism 9.4. The ordinary differential equations and parameters fitted in Matlab were also entered in Graphpad Prism to simulate the internal concentrations over time.

Data set [3] is described as follows: toxicokinetics experiment I: elimination after 1 h exposure. The format is in vivo, Caenorhabditis elegans. Conditions: whole organism (worm homogenate). The procedure: (§1) In between cycles, the samples were kept on ice. […] Samples were stored at −20 °C until further analysis.
(§2) All parameters and units are summarized in SI A3.

For data set [4], the system named is C. elegans. The data set is described as above. Conditions: after 1 h exposure; no E. coli. Format: in vivo, Caenorhabditis elegans. The procedure: as §1, §2
Data set [5] is described as follows: toxicokinetics experiment III: effect of E. coli on uptake. The format is in vivo, Caenorhabditis elegans. Conditions: 10 mg/L, exp III, 10 mg/L fluoxetine, 10 h, read-out: k2NF elimination rate constant of norfluoxetine (converted). How it is done: as §1, §2
The test system of data set [6] is C. elegans. Described as above. Format: in vivo, Caenorhabditis elegans. Conditions: Figure 4B-D (experiments III and IV). The procedure: as §1, §2
The nature of data set [7]: toxicokinetics experiment IV: long-term exposure of L4 and adult worms. Conditions: whole organism (worm homogenate), iv, 20 mg/L, k2NF elimination rate constant of norfluoxetine, exp IV, with E. coli, 20 mg/L fluoxetine, 48 h. How it is done:
(§3) Three replicates of 1500 pooled C. elegans were used for each time point for each concentration. For experiments with E. coli, the OD600 was kept constant at 0.4.
(§4) C. elegans containing pellets were resuspended in 500 μL of methanol, and 0.6 g of […] ceramic beads (1.4 mm) were added to the vial. The samples were homogenized three times for 20 s using a Minilys homogenizer (Bertin Technologies) at middle speed. In between cycles, the samples were kept on ice. […] The supernatant was transferred to a glass tube, the pellet (including the ceramic beads) was resuspended in 500 μL of methanol, and the homogenization, sonication, and centrifugation cycle was repeated twice more to result in a three-step extraction. The total combined supernatant was concentrated to dryness under a gentle nitrogen stream and redissolved in 500 μL of methanol to a final concentration of the IS of 1 μM. Samples were stored at −20 °C until further analysis.
(§5) A one-compartment model was selected since chemical concentrations could only be measured for the whole organism. […] All parameters and units are summarized in SI A3.
(§6) The kinetic bioconcentration factor[33] was calculated with eq 3, and the ke and kt were only included when applicable to the respective experiment [drawing 4] 3
(§7) Model fitting was performed by adding the ordinary differential equations to the BYOM modeling package version 6.3 (http://www.debtox.info/byom.html) in Matlab R2022b.[34] […] Optimization was performed with the Melder–Mead Simplex Search method, minimizing the minus log-likelihood. […] Model script deviations from the BYOM model can be found in SI A9.

The test system of data set [8] is C. elegans. The description is as above. Conditions: 20 mg/L fluoxetine. How it is done: as §3, §4, §5, §6, §7
Data set [9] relates to C. elegans. Kind of data set: norfluoxetine uptake and coexposure with fluoxetine (SI A5). Format: in vivo, Caenorhabditis elegans. Conditions: same exposure concentration; SI A5, Figure S9.
Protocol: Alternatively, there could be a concentration-dependent increase in metabolism over time resulting from enzyme induction. This was modeled with an extra metabolism rate constant ke that was included after 10 h (eq 1a and Figure 4C,D).
The test system of data set [10] is C. elegans. Put plainly: calculated excretion rate of norfluoxetine from exposure medium concentrations (experiments III and IV, SI A6). The format is in vivo, Caenorhabditis elegans. An excerpt: Norfluoxetine was also detected in the exposure medium for experiments III and IV and increased over time, indicating the elimination of norfluoxetine. […] However, this does allow for a calculation of the excretion rate of norfluoxetine, as shown in SI A6. […] This could be explained by the saturation of binding sites for norfluoxetine at these higher concentrations, but this still requires further investigation.

For data set [11], the system named is E. coli OP50. Put plainly: uptake and metabolism of fluoxetine in E. coli OP50 and medium. Details: species or system Escherichia coli. Conditions: 10 mg/L fluoxetine, E. coli OD600 1.0.
[12] abbreviates: at 10 mg/L, p < 0.01 Bonferroni post hoc.

≈ marks a conversion by molar mass, not a printed value.

As a reminder, the EC50 is the concentration needed to bring the measured effect to its halfway point. Take `NCCC(Oc1ccc(C(F)(F)F)cc1)c1ccccc1` (stereo not drawn) [norfluoxetine]: in data set [1] (setting [12]), the “activity compared to fluoxetine” value was “significantly lower”. Moreover, the EC50 in data set [1] (nominal concentrations, S medium with E. coli OD600 0.4, 24 h exposure, read-out: EC50 for the effect on activity (+95% confidence intervals)) came out at 10.1 µg/mL (≈ 34.2 µM); in data set [2] (nominal concentrations, 72 h exposure from L1, S medium with E. coli OD600 0.4, read-out: EC50 for chemotaxis (+95% confidence intervals)), 14.2 µg/mL (≈ 48.2 µM). In data set [2] (setting [12]), the “chemotaxis index compared to fluoxetine” value is “significantly lower”. For the same compound, the k el was 0.000375 s⁻¹ in data set [3] (1 h exposure (fluoxetine 0.5, 5, 20 mg/L; norfluoxetine 20 mg/L), then clean medium, no E. coli, read-out: k2sum elimination rate constant (+95% CI) (converted)); 2.36e-05 s⁻¹ in data set [3] (1 h exposure, then clean medium, slow phase after 1 h, no E. coli, read-out: k2slow elimination rate constant (+95% CI) (converted)); 0.000351 s⁻¹ in [3] (calculated from k2sum and k2slow, read-out: k2fast elimination rate constant (converted)); 2.78e-08 s⁻¹ in data set [5] (whole organism (homogenate of pooled worms), no E. coli); 2.78e-08 s⁻¹ in data set [5] (whole organism (worm homogenate), with E. coli, k1, k2FLX, k2NF, kt constrained (eq 1b)); 3.33e-05 s⁻¹ in data set [5] (whole organism (worm homogenate), with E. coli, no constraint). The compound also gave a k el in [7] of 3.06e-05 s⁻¹. Also, the “elimination over time after transfer to clean medium” value in [4] is “still present in small amounts after 24 h”. In addition, the “elimination rate (k2NF)” value in [6] is “around 0.12 /h”. Further, in data set [6], the “transformation rate kt (norfluoxetine formation)” value was “around 0.06 1/h”. For the same compound, the “norfluoxetine internal concentration relative to fluoxetine at steady state” value in [8] (Figure 4D) is listed as “around half of the fluoxetine concentrations”. In addition, the “norfluoxetine internal concentration at steady state” value in data set [8] (steady state after 10 h) is given as “approximately 80 mg/kgnem”. Further, the “internal concentrations of norfluoxetine compared to fluoxetine” value in data set [9] is reported as “around 70%”. For the same compound, the “calculated excretion rate of norfluoxetine” value in data set [10] (20 mg/L of fluoxetine exposure) is listed as “around 0.5 /h”; in data set [10] (0.5 and 10 mg/L of fluoxetine), “around 0.1 /h”. In [10] (20 mg/L of fluoxetine exposure, value it increased to), the “calculated excretion rate of norfluoxetine, increased value” is on record as 0.83. Also, the “norfluoxetine concentrations in medium and bacteria exposed to fluoxetine” value in data set [11] is “negligible”.
